{"source": "paper PMC13267113", "about": "(npj Drug Discovery, 2025)", "key": {"[1]": {"tested_on": "HCT116 (human, colon)", "assay": "MTT cytotoxicity HCT116", "format": "cell-based", "conditions": "HCT-116, 72 h, n = 3", "protocol": "(§1) All cell types were cultivated at 37 °C with 5% CO2. HepG2, HEK293, HCT116, CHO-K1, HeLa-CCL-2 and Huh-7.5 were purchased from ATCC. The respective cell media (Gibco) were supplemented with 10% FBS (Gibco) before usage. Cells were used between passages #5 and #30. To obtain biological repeats, cells were split separately for at least two passages.\n(§2) Cells were washed with PBS and 0.5 mL trypsin was added. Afterwards, cells were incubated for 5 min before adding 10 mL medium containing 10% FBS. Per well, 120 µL cell suspension (5 × 10^4 cells/mL) was seeded in transparent 96-well cell bind plates and incubated for 2 h (37 °C, 5% CO2). A dilution series (1:3) of test compounds was prepared in respective media containing 10% FBS and added (60 µL) to the prepared cell plate. Cells were incubated for a further 72 h (37 °C, 5% CO2). Next, 20 µL MTT (5 mg/mL in PBS) was added to each well and incubated for 2 h (37 °C, 5% CO2). The wells were emptied and 100 µL isopropanol/10 N HCl (1000:4) per well was added.\n(§3) The plates were analyzed by measuring the absorbance at 570 nm (plate reader Infinite® 200 Pro, Tecan). After normalization of data to the respective solvent controls, the calculated percentage of growth inhibition was plotted using GraphPad Prism software (version 10.0.2)."}, "[2]": {"tested_on": "U2OS (human, osteosarcoma)", "assay": "MTT cytotoxicity U2OS", "format": "cell-based", "conditions": "72 h, n = 3", "protocol": "as §2, §3"}, "[3]": {"tested_on": "Huh-7.5 (human, liver)", "assay": "MTT cytotoxicity Huh-7.5", "format": "cell-based", "conditions": "Huh7.5, 72 h, n = 3", "protocol": "as §1, §2, §3"}, "[4]": {"assay": "Metabolic stability in mouse liver microsomes", "format": "in vitro ADME", "conditions": "pooled mouse liver microsomes, 0.5 mg/mL microsomes, NADPH", "protocol": "The metabolic stability of testosterone, verapamil and ketoconazole was determined in parallel to confirm the enzymatic activity of mouse liver microsomes. For combination experiments, cobicistat was added to the incubation mixture together with test compounds. […] Concentration of the remaining test compound at the different time points was analyzed by HPLC-MS/MS (Vanquish Flex coupled to a TSQ Altis Plus, Thermo Fisher, Dreieich, Germany) and used to determine half-life (t1/2)."}, "[5]": {"assay": "Metabolic stability in mouse hepatocytes", "format": "in vitro ADME", "protocol": "For the evaluation of combined phase I and phase II metabolic stability, the compound (1 μM) was incubated with 0.25 × 10^6 cells/mL of pooled mouse hepatocytes (Xenotech, Kansas City, USA). Cells were thawed in Leibovitz’s L-15 medium without phenol red (ThermoFisher Scientific, Waltham, USA). Briefly, cells were transferred into 50 mL of medium, followed by centrifugation at 55 g for 6 min. Supernatant was discarded, and the cell count was determined after gently resuspending the cell pellet in 1mL of medium. Hepatocytes were diluted to 0.5 × 10^6 cells/mL and incubated at 37 °C, 700 rpm for 10 min, to achieve the desired final cell count after addition of an equal volume of test compounds in medium, leading to a final test concentration of 1 µM at 1% DMSO. […] For the determination of metabolism in the presence of cobicistat, this drug was added together with test compounds in the desired concentration range. The metabolic stability of testosterone, verapamil, ketoconazole and 7-hydroxycoumarine were determined in parallel to confirm the enzymatic activity of mouse hepatocytes. […] Concentration of the remaining test compound at the different time points was analyzed by HPLC-MS/MS (Vanquish Flex coupled to a TSQ Altis Plus, Thermo Fisher, Dreieich, Germany) and used to determine half-life (t1/2). Intrinsic clearance was calculated as follows:2 CLintµL/min×10^6cells=Incubation volumeµL×ln(2)/Cells in incubation mixture[10^6]×t1/2\nFor metabolite identification studies, test compounds were incubated at 10 µM final concentration and samples were analyzed using HPLC-HRMS (Ultimate 3000 coupled to a Q Exactive Focus, Thermo Fisher, Dreieich, Germany). […] Blank samples using DMSO were run in parallel for background subtraction. Sample processing for metabolite identification was performed using Compound Discoverer 3.2 (Thermo Fisher, Dreieich, Germany). Metabolites were identified based on mass shifts and feasibility of the metabolic reaction, also in view of MS peak intensities over time."}, "[6]": {"assay": "Mouse plasma protein binding", "format": "in vitro ADME", "conditions": "read-out: Mouse PPB (converted)"}, "[7]": {"assay": "physchem", "conditions": "zebrafish embryo incubation medium, aqueous buffer, kinetic from dmso stock"}}}
{"smiles": "CO[C@H](C(N)=O)[C@H](NC(=O)c1ccc(NC(=O)c2ccc(C#N)cc2)cc1)C(=O)Nc1ccc(C(=O)Nc2ccc(C(=O)Nc3ccc(C(=O)O)cc3)c(O)c2OC(C)C)cc1", "note": "[CN-861-2]", "values": [{"measurement": "IC50", "setting": "[1]", "value": "> 20", "unit": "µM"}, {"measurement": "IC50", "setting": "[2]", "value": "> 20", "unit": "µM"}, {"measurement": "IC50", "setting": "[3]", "value": "> 20", "unit": "µM"}, {"measurement": "microsomal CLint at 1 μM", "setting": "[4]; read-out: MLM Clint", "value": "< 11.6", "unit": "µL/min/mg"}, {"measurement": "half-life at 1 µM", "setting": "[4]; read-out: MLM t1/2", "value": "> 2", "unit": "h"}, {"measurement": "stable in murine hepatocytes for", "setting": "[5]", "value": "> 3", "unit": "h"}, {"measurement": "hepatocyte CLint at 1 µM", "setting": "[5]; mouse, pooled mouse hepatocytes, 1 μM, 0.25 × 10^6 cells/mL", "value": "< 5.1", "unit": "µL/min/1e6 cells"}, {"measurement": "half-life at 1 µM", "setting": "[5]; mouse, pooled mouse hepatocytes, 1 μM, 0.25 × 10^6 cells/mL, read-out: Mouse Hepatocytes t1/2", "value": "> 3", "unit": "h"}, {"measurement": "fraction unbound", "setting": "[6]", "value": 0.0037}, {"measurement": "solubility", "setting": "[7]", "value": 20, "unit": "µM"}]}
